Measured values published in article PMC8912008, “Pharmacokinetic Study of Withanosides and Withanolides from Withania somnifera Using Ultra-High Performance Liquid Chromatography-Tandem Mass Spectrometry (UHPLC-MS/MS)” (Molecules, 2022).

Assays:
[1] = Stability of analytes in rat plasma; conditions: n = 6; for Processed sample stability (% ± SD): processed rat plasma sample, 4 h; for Bench top Stability (% ± SD) / Autosampler stability (% ± SD) / Freeze-thaw stability (% ± SD): rat plasma; for Bench top Stability (% ± SD): 25 °C for 4 h; for Freeze-thaw stability (% ± SD): three freeze/thaw cycles
Procedure: Six replicates of quality control samples were analyzed at four concentration levels (LLOQ, LQC, MQC, and HQC; n = 6) on the same day (intra-day) and repeated for three consecutive days (inter-day) (Table S2). The precision was expressed as the relative standard deviation (% RSD), and accuracy was reported as the relative error (% RE). Later, these samples were analyzed for stability testing under the following conditions: three complete freeze/thaw cycles (−80 °C to 25 °C), long-term sample storage (−80 °C for 60 days), processed sample, and bench-top (25 °C for 4 h).

in vitro = conditions: rat
Source text: The everted intestinal segment was mounted on the apparatus and setting it in the beaker. The internal surface of the glass tubes serves as the mucosal compartment, and the beaker serves as the serosal compartment. Animals were humanly sacrificed by cervical dislocation followed by a midline incision. The abdominal cavity was opened carefully, and the intestine was maneuvered to identify the ileocecal junction. A 7 cm long intestinal segment distant to the ileocecal junction (5–6 cm) was excised by carefully removing the mesenteric attachments without causing any damage to the intestinal architecture. The segment was cleaned using the Kreb’s Ringer Bicarbonate (KRB) buffer medium and was stored in KRB buffer in a petri dish. The cleaned segment was then everted gently using a glass rod. Finally, a 3 cm long intestinal segment was used to perform the permeability study [49, 50].
The tissue was mounted on the apparatus and was placed in a 1000 mL beaker containing 2 mg/mL WSE suspension. The intestinal segment was perfused from the mucosal end using the KRB buffer. The apparatus (beaker with tissue) was placed on the magnetic stirrer followed by continuous stirring using a magnetic bead at 25 rpm to mimic the peristaltic movement of the stomach at 37 °C with appropriate aeration. The sample collection at different time points was carried out every 5 min interval for 1 h. The collected samples were further diluted and analyzed using LC-MS/MS.
The sample was diluted to 20-fold in ACN and injected 2 µL into LC-MS/MS. Samples were stored at −20 °C until analysis using validated UHPLC-MS/MS. The permeability was obtained by plotting the cumulative amount transported (ng) across the gut sac against time (second).
The calculation of apparent permeability (Papp) was carried out using the following Equation (1):Papp = dQ/dt × 1/A × C0(1) where Papp: apparent permeability co-efficient; dQ/dt: the cumulative amount of drug (Q) appearing in the acceptor (serosal) compartment as a function of time and was obtained from the slope of the linear portion of the amount transported-versus-time plot. A: Surface area of the intestine (cm^2) (0.18 cm as radius) and C0: Initial concentration of drug in the donor compartment (ng/mL).

[2] = In vivo pharmacokinetic study after oral WSE
Source text: It is known that the hydrophobic interior surface of the cell membrane (lipid bilayer) serves as a barrier to the passage of polar and high molecular weight molecules.
Food pellets and tap water were provided ad libitum throughout the experimentation. The protocol to carry out in vivo pharmacokinetics was approved by The Institutional Animal Ethics Committee (IAEC) of Crystal Biological Solution, Pune, Maharashtra, India. […] Eighteen animals were subdivided into three groups, (n = 6) animals in each group. Withania somnifera extract suspension was prepared in water for oral administration, and the dose was calculated based on the acute oral toxicity study (500 mg/kg; single dose). […] The separated plasma samples were transferred into Eppendorf tubes and stored at −80 °C in a deep freezer until analysis. Ten pharmacokinetic parameters were determined using PK solver 2.0, USA [45, 46, 47]. The maximum observed concentration (Cmax) and maximum observed time (Tmax) were calculated directly from the experimental results. The elimination rate constant (Kel) was calculated from the slope of the linear regression of Log concentrations as a function of time. […] The area under the curve (AUC(0–t)) was calculated from the linear curve following the trapezoidal rule, while AUC(0–∞) was calculated by adding Ct/λ, with Ct being the final measurable concentration. Oral clearance (Cl/F) was obtained from the equation Cl/F = dose/AUC(0–∞). Mean residence time (MRT) was calculated as AUMC(0–∞)/AUC(0–∞), where AUMC(0–∞) is the area under the first moment curve. […] The pharmacokinetic parameters as the average of six rats ± SD. The mean plasma concentration Vs. time curve (mean ± SD) was prepared using Prism 8.2, (GraphPad, San Diego, CA, USA).

[3] = high QC (nominal 200.50-201.50 ng/mL)
[4] = low QC (nominal 10.05-10.50 ng/mL)
[5] = male, Sprague Dawley, rat, in vivo, po, 500 mg/kg

Structure (SMILES) | Processed sample stability (% ± SD) [1, 3] | Processed sample stability (% ± SD) [1, 4] | Bench top Stability (% ± SD) [1, 3] | Bench top Stability (% ± SD) [1, 4] | Autosampler stability (% ± SD) [1, 3] | Autosampler stability (% ± SD) [1, 4] | Freeze-thaw stability (% ± SD) [1, 3] | Freeze-thaw stability (% ± SD) [1, 4] | Papp at 1 h, 2 mg/mL (in vitro) | concentration in plasma ([2]; rat plasma after WSE 500 mg/kg oral, LLOQ 3 ng/mL) | AUC(0-inf) [2, 5] | AUC(0-t) [2, 5] | Cmax [2, 5] | MRT inf [2, 5] | Tmax [2, 5] | half-life [2, 5] | k el [2, 5] | Cl/F (oral clearance) ([2]; rat, in vivo, po, 500 mg/kg) | Vdapp (mean apparent volume of distribution) ([2]; rat, in vivo, po, 500 mg/kg) | oral clearance (Cl/F) ([2]; rat, in vivo, po, 500 mg/kg)
CC1=C(C)C(=O)O[C@@H]([C@@H](C)[C@H]2CC[C@H]3[C@@H]4[C@@H]5O[C@@H]5[C@@]5(O)CC=CC(=O)[C@]5(C)[C@H]4CC[C@]23C)C1 [Withanolide B] | 95.01 ± 5.83% | 113.48 ± 47.73% | 96.83 ± 6.66% | 95.51 ± 5.04% | 97.26 ± 3.36% | 98.84 ± 4.54% | 93.48 ± 6.55% | 116.31 ± 36.76% | 0.0131 ×10⁻⁶ cm/s |  |  |  |  |  |  |  |  |  |  | 
CC1=C(C)C(=O)O[C@@H]([C@@H](C)[C@@]2(O)CC[C@H]3[C@@H]4[C@@H]5O[C@@H]5[C@@]5(O)CC=CC(=O)[C@]5(C)[C@H]4CC[C@@]32C)C1 [Withanone] | 99.56 ± 4.91% | 112.07 ± 37.93% | 98.87 ± 9.47% | 96.31 ± 6.27% | 111.25 ± 4.86% | 109.47 ± 4.01% | 98.14 ± 4.74% | 104.24 ± 7.98% | 0.0317 ×10⁻⁶ cm/s | below LLOQ |  |  |  |  |  |  |  |  |  | 
CC1=C(CO)C(=O)O[C@@H]([C@@H](C)[C@H]2CC[C@H]3[C@@H]4CC=C5C[C@@H](O[C@@H]6O[C@H](CO[C@@H]7O[C@H](CO)[C@@H](O)[C@H](O)[C@H]7O)[C@@H](O)[C@H](O)[C@H]6O)C[C@H](O)[C@]5(C)[C@H]4CC[C@]23C)C1 [Withanoside IV] | 101.10 ± 9.54% | 104.41 ± 4.84% | 100.34 ± 10.45% | 104.41 ± 4.84% | 111.61 ± 0.88% | 108.21 ± 2.00% | 98.95 ± 5.47% | 104.78 ± 5.59% | 0.142 ×10⁻⁶ cm/s |  | 22.9 ± 5.73 ng·h/mL | 14 ± 3.7 ng·h/mL | 13.8 ± 3.73 ng/mL | 2.08 ± 0.394 h | 45 min | 66.1 ± 16.3 min | 0.000182 s⁻¹ | 0.176 ± 0.037 | 0.278 ± 0.083 | 0.176 ± 0.037 (mg/kg)/(ng/mL)/h
CC1=C(C)C(=O)O[C@@H]([C@@H](C)[C@H]2CC[C@H]3[C@@H]4CC=C5C[C@@H](O[C@@H]6O[C@H](CO[C@@H]7O[C@H](CO)[C@@H](O)[C@H](O)[C@H]7O)[C@@H](O)[C@H](O)[C@H]6O)C[C@H](O)[C@]5(C)[C@H]4CC[C@]23C)C1 [Withanoside V] | 90.47 ± 6.50% | 134.85 ± 90.10% | 91.74 ± 8.97% | 99.58 ± 8.68% | 111.25 ± 4.54% | 109.83 ± 8.35% | 99.38 ± 6.58% | 105.13 ± 6.95% | 0.0343 ×10⁻⁶ cm/s |  |  |  |  |  |  |  |  |  |  | 
